Results published in US20090298820A1, “3-SUBSTITUTED-1H-PYRROLO[2,3-B]PYRIDINE AND 3-SUBSTITUTED-1H-PYRROLO[3,2-B]PYRIDINE COMPOUNDS, THEIR USE AS MTOR KINASE AND PI3 KINASE INHIBITORS, AND THEIR SYNTHESES” (Wyeth, priority 2008, published 2009).

Key:
mTOR = mTOR (Homo sapiens, UniProt P42345); experiment: mTOR enzyme assay (DELFIA format, His6-S6K substrate); assay type: biochemical; settings: read-out: mTOR Kinase Median IC50
PI3Kγ = PI3Kγ (Homo sapiens, UniProt P48736); experiment: PI3K-gamma fluorescence polarization assay; assay type: biochemical; settings: read-out: PI3Kγ Median IC50
PI3Kα = PI3Kα (Homo sapiens, UniProt P42336); experiment: PI3K-alpha fluorescence polarization assay; assay type: biochemical; settings: read-out: PI3Kα Median IC50
Chain of PI3Kα (P42336 whole entry, species assumed): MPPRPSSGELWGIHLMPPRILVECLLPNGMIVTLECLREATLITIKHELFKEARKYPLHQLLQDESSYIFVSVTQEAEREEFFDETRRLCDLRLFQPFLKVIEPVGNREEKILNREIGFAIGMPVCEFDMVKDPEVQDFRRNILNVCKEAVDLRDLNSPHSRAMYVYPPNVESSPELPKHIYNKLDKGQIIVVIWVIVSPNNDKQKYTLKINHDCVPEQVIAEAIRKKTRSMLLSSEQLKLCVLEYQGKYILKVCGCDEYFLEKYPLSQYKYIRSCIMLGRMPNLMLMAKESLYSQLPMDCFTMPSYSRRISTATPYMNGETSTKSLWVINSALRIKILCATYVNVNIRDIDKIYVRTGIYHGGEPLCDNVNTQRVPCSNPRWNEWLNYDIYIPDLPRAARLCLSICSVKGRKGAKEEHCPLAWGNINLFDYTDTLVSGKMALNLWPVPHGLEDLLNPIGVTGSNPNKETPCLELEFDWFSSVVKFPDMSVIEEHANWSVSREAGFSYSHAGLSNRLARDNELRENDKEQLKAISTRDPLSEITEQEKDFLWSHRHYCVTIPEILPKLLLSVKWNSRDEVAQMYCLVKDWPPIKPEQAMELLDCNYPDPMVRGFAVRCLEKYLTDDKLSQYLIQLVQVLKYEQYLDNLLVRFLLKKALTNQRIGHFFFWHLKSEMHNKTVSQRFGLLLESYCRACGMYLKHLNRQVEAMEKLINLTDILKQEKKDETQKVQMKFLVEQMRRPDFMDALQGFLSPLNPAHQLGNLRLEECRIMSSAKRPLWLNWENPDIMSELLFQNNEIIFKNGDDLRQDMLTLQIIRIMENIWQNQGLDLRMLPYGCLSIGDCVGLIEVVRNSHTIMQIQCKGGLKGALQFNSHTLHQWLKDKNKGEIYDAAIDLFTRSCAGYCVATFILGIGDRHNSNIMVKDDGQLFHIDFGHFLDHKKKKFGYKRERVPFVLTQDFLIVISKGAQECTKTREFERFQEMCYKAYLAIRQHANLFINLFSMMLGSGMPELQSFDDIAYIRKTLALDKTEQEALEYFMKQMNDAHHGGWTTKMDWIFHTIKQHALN
Chain of PI3Kα (P27986 whole entry partner, species assumed): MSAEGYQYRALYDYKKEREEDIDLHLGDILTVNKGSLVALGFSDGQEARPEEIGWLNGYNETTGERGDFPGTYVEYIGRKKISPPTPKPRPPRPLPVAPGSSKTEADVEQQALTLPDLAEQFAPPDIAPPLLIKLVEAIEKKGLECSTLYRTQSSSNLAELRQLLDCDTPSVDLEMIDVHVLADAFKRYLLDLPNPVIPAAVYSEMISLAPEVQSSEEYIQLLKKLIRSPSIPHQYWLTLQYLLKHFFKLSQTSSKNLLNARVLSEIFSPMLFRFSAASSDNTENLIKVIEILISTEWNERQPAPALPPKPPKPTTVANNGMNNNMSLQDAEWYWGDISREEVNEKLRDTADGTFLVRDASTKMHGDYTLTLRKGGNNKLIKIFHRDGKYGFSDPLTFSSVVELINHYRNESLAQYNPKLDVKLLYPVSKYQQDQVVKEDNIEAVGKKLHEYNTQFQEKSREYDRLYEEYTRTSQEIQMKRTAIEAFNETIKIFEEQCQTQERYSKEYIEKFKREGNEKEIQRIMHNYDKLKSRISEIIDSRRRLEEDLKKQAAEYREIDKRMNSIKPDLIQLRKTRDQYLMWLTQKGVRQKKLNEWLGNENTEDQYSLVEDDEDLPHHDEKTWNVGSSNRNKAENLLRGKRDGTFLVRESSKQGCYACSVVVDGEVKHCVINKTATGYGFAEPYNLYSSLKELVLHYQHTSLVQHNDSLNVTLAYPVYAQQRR

Chain of PI3Kγ (P48736 whole entry, species assumed): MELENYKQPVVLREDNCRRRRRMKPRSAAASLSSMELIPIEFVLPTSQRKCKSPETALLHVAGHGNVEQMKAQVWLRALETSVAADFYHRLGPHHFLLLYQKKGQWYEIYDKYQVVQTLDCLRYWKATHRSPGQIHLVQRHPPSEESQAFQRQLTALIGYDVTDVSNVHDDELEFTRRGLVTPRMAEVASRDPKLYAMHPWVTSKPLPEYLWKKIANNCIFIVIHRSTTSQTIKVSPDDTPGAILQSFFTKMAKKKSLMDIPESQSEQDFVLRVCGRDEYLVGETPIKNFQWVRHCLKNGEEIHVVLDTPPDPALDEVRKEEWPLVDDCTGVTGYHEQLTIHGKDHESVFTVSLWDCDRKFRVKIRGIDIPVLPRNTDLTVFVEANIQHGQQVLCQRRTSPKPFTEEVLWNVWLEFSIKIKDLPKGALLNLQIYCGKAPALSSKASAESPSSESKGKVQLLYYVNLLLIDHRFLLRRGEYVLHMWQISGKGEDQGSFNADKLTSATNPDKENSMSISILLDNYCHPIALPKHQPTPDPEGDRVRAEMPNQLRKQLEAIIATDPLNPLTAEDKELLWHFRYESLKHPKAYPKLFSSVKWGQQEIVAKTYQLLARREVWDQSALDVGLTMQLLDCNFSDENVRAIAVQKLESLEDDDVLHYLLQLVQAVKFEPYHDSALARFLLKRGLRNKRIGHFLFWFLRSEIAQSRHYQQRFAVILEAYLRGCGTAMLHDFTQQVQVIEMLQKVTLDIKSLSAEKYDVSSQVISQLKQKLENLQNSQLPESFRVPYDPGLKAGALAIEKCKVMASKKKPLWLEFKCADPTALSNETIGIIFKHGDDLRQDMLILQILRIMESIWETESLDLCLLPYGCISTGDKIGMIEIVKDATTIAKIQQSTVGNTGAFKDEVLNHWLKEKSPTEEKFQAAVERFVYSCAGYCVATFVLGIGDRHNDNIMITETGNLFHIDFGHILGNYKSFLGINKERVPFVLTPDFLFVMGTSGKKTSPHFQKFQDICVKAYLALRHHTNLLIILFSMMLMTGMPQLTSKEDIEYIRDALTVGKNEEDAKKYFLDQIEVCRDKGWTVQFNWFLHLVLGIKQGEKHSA

SMILES	IC50 (mTOR) [nM]	melting point	IC50 (PI3Kγ) [nM]	IC50 (PI3Kα) [nM]
Cn1cc(/C=C2\Oc3cccc(O)c3C2=O)c2c(N3CC4(C)CC3CC(C)(C)C4)ccnc21 (stereo not drawn) [Compound 105, (2Z)-4-hydroxy-2-{[1-methyl-4-(1,3,3-trimethyl-6-azabicyclo[3.2.1]oct-6-yl)-1H-pyrrolo[2,3-b]pyridin-3-yl]methylene}-1-benzofuran-3(2H)-one]	69	220 to 223 °C	> 10000	> 10000
Cn1cc(/C=C2\Oc3ccc(NS(C)(=O)=O)cc3C2=O)c2c(-c3ccccc3)ccnc21 [Compound 162, N-{(2Z)-2-[(1-methyl-4-phenyl-1H-pyrrolo[2,3-b]pyridin-3-yl)methylidene]-3-oxo-2,3-dihydro-1-benzofuran-5-yl}methanesulfonamide]	> 4000	257 to 262 °C	7430	5900
Cn1cc(/C=C2\Oc3ccc(NC(=O)Nc4cccnc4)cc3C2=O)c2c(N3C4CCCC3COC4)ccnc21 [Compound 276, 1-[(2Z)-2-{[1-methyl-4-(3-oxa-9-azabicyclo[3.3.1]non-9-yl)-1H-pyrrolo[2,3-b]pyridin-3-yl]methylidene}-3-oxo-2,3-dihydro-1-benzofuran-5-yl]-3-pyridin-3-ylurea]	31.5	240 to 245 °C (dec.)	1120	2260
COCCN(C)C(=O)C1CCN(c2ccnc3c2c(/C=C2\Oc4ccc(NC(=O)Nc5cccnc5)cc4C2=O)cn3C)CC1 [Compound 246, N-(2-methoxyethyl)-N-methyl-1-{1-methyl-3-[(Z)-{3-oxo-5-[(pyridin-3-ylcarbamoyl)amino]-1-benzofuran-2(3H)-ylidene}methyl]-1H-pyrrolo[2,3-b]pyridin-4-yl}piperidine-4-carboxamide]	30.5	282 to 285 °C	1540	1420
COCC1CN(C(=O)C2CCN(c3ccnc4c3c(/C=C3\Oc5ccc(NC(=O)Nc6cccnc6)cc5C3=O)cn4C)CC2)CCO1 (stereo not drawn) [Compound 308, 1-[(2Z)-2-{[4-(4-{[2-(methoxymethyl)morpholin-4-yl]carbonyl}piperidin-1-yl)-1-methyl-1H-pyrrolo[2,3-b]pyridin-3-yl]methylidene}-3-oxo-2,3-dihydro-1-benzofuran-5-yl]-3-pyridin-3-ylurea]	37	206 to 210 °C	2800	729
CN(C)C(=O)C1CCN(c2ccnc3c2c(/C=C2\Oc4ccc(NC(=O)N5CCOCC5)cc4C2=O)cn3C)CC1 [Compound 170, N-[(2Z)-2-({4-[4-(dimethylcarbamoyl)piperidin-1-yl]-1-methyl-1H-pyrrolo[2,3-b]pyridin-3-yl}methylidene)-3-oxo-2,3-dihydro-1-benzofuran-5-yl]morpholine-4-carboxamide]	91.5	128 °C	> 10000	3110
Cn1cc(/C=C2\Oc3ccc(Br)cc3C2=O)c2c(-c3ccccc3)ccnc21 [Compound 37, (2Z)-5-bromo-2-[(1-methyl-4-phenyl-1H-pyrrolo[2,3-b]pyridin-3-yl)methylene]-1-benzofuran-3(2H)-one]	> 4000	227 to 229 °C	4000	6860
CNC(=O)Nc1ccc2c(c1)C(=O)/C(=C/c1cn(C)c3nccc(N4C5CCC4COC5)c13)O2 [Compound 281, 1-methyl-3-[(2Z)-2-{[1-methyl-4-(3-oxa-8-azabicyclo[3.2.1]oct-8-yl)-1H-pyrrolo[2,3-b]pyridin-3-yl]methylidene}-3-oxo-2,3-dihydro-1-benzofuran-5-yl]urea]	31	226 to 232 °C (dec.)	1710	104
Cn1cc(/C=C2\Oc3cccc(O)c3C2=O)c2c(-c3cccc(OC(F)(F)F)c3)ccnc21 [Compound 110, (2Z)-4-hydroxy-2-({1-methyl-4-[3-(trifluoromethoxy)phenyl]-1H-pyrrolo[2,3-b]pyridin-3-yl}methylene)-1-benzofuran-3(2H)-one]	82.5	230 to 233 °C	> 10000	651

These reach a lower IC50 (mTOR). Values come first.

IC50 (mTOR) [nM]	melting point	IC50 (PI3Kγ) [nM]	IC50 (PI3Kα) [nM]	SMILES
18	220 to 223 °C	425	369	CN(C)C(=O)c1cccc(-c2ccnc3c2c(/C=C2\Oc4cccc(O)c4C2=O)cn3C)c1 [Compound 121, 3-{3-[(Z)-(4-hydroxy-3-oxo-1-benzofuran-2(3H)-ylidene)methyl]-1-methyl-1H-pyrrolo[2,3-b]pyridin-4-yl}-N,N-dimethylbenzamide]
17	260 to 265 °C	2820	1680	Cn1cc(/C=C2\Oc3ccc(NC(=O)Nc4cccnc4)cc3C2=O)c2c(N3CCC(C(=O)N4CC5CCC(C4)O5)CC3)ccnc21 [Compound 250, 1-[(2Z)-2-({1-methyl-4-[4-(8-oxa-3-azabicyclo[3.2.1]oct-3-ylcarbonyl)piperidin-1-yl]-1H-pyrrolo[2,3-b]pyridin-3-yl}methylene)-3-oxo-2,3-dihydro-1-benzofuran-5-yl]-3-pyridin-3-ylurea]
16.5	235 to 240 °C	337	337	CNC(=O)Nc1ccc2c(c1)C(=O)/C(=C/c1cn(C)c3nccc(N4CCC(C(=O)N5CCOCC5)CC4)c13)O2 [Compound 174, 1-methyl-3-[(2Z)-2-({1-methyl-4-[4-(morpholin-4-ylcarbonyl)piperidin-1-yl]-1H-pyrrolo[2,3-b]pyridin-3-yl}methylidene)-3-oxo-2,3-dihydro-1-benzofuran-5-yl]urea]
16.5	257 to 262 °C (dec.)	378	6360	Cn1cc(/C=C2\Oc3ccc(NC(=O)Nc4cccnc4)cc3C2=O)c2c(N3CCC(C(=O)N4CC5CC4CN5)CC3)ccnc21 (stereo not drawn) [Compound 264, 1-[(2Z)-2-({4-[4-(2,5-diazabicyclo[2.2.1]hept-2-ylcarbonyl)piperidin-1-yl]-1-methyl-1H-pyrrolo[2,3-b]pyridin-3-yl}methylene)-3-oxo-2,3-dihydro-1-benzofuran-5-yl]-3-pyridin-3-ylurea]
16	206 to 210 °C	5580	4050	COCCN(CCOC)C(=O)C1CCN(c2ccnc3c2c(/C=C2\Oc4ccc(NC(=O)Nc5cccnc5)cc4C2=O)cn3C)CC1 [Compound 251, N,N-bis(2-methoxyethyl)-1-{1-methyl-3-[(Z)-{3-oxo-5-[(pyridin-3-ylcarbamoyl)amino]-1-benzofuran-2(3H)-ylidene}methyl]-1H-pyrrolo[2,3-b]pyridin-4-yl}piperidine-4-carboxamide]
11	197 to 205 °C (dec.)	643	128	CNC(=O)Nc1ccc2c(c1)C(=O)/C(=C/c1cn(C)c3nccc(N4CC5CCC4CO5)c13)O2 (stereo not drawn) [Compound 279, 1-methyl-3-[(2Z)-2-{[1-methyl-4-(2-oxa-5-azabicyclo[2.2.2]oct-5-yl)-1H-pyrrolo[2,3-b]pyridin-3-yl]methylidene}-3-oxo-2,3-dihydro-1-benzofuran-5-yl]urea]
8.5	270 to 275 °C	132	41	Cn1cc(/C=C2\Oc3cccc(O)c3C2=O)c2c(-c3ccc(CO)nc3)ccnc21 [Compound 76, (2Z)-4-hydroxy-2-({4-[6-(hydroxymethyl)pyridin-3-yl]-1-methyl-1H-pyrrolo[2,3-b]pyridin-3-yl}methylene)-1-benzofuran-3(2H)-one]
3.2	162 to 166 °C	396	223	C[C@@H]1CN(C(=O)C2CCN(c3ccnc4c3c(/C=C3\Oc5cccc(O)c5C3=O)cn4C)CC2)C[C@H](C)O1 [Compound 302, (2Z)-2-{[4-(4-{[(2R,6S)-2,6-dimethylmorpholin-4-yl]carbonyl}piperidin-1-yl)-1-methyl-1H-pyrrolo[2,3-b]pyridin-3-yl]methylidene}-4-hydroxy-1-benzofuran-3(2H)-one]
2.3	262 to 270 °C	98	75	C[C@@H]1CN(C(=O)c2ccc(-c3ccnc4c3c(/C=C3\Oc5cccc(O)c5C3=O)cn4C)cc2)C[C@H](C)O1 [Compound 303, (2Z)-2-{[4-(4-{[(2R,6S)-2,6-dimethylmorpholin-4-yl]carbonyl}phenyl)-1-methyl-1H-pyrrolo[2,3-b]pyridin-3-yl]methylidene}-4-hydroxy-1-benzofuran-3(2H)-one]
1.9	136 to 140 °C	158	24	Cn1cc(/C=C2\Oc3cccc(O)c3C2=O)c2c(N3CCC(C(=O)N4CCN(CCO)CC4)CC3)ccnc21 [Compound 307, (2Z)-4-hydroxy-2-{[4-(4-{[4-(2-hydroxyethyl)piperazin-1-yl]carbonyl}piperidin-1-yl)-1-methyl-1H-pyrrolo[2,3-b]pyridin-3-yl]methylidene}-1-benzofuran-3(2H)-one]
1	154 to 160 °C	38	65	COCCC1CN(C(=O)c2ccc(-c3ccnc4c3c(/C=C3\Oc5cccc(O)c5C3=O)cn4C)cc2)CCO1 (stereo not drawn) [Compound 305, (2Z)-4-hydroxy-2-{[4-(4-{[2-(2-methoxyethyl)morpholin-4-yl]carbonyl}phenyl)-1-methyl-1H-pyrrolo[2,3-b]pyridin-3-yl]methylidene}-1-benzofuran-3(2H)-one]
0.6	322 to 324 °C	282	68	Cn1cc(/C=C2\Oc3cc(O)cc(O)c3C2=O)c2c(N3CCCCC3)ccnc21 [Compound 40, (2Z)-4,6-dihydroxy-2-[(1-methyl-4-piperidin-1-yl-1H-pyrrolo[2,3-b]pyridin-3-yl)methylene]-1-benzofuran-3(2H)-one]
